{
  "source": "PubChem BioAssay (NCI)",
  "experiment_in_all_cases": "NCI anticancer screen, dose series, 48 h",
  "key": {"NCI-H23 lung": {"tested_on": "NCI-H23 lung"}, "NCI-H522 lung": {"tested_on": "NCI-H522 lung"}, "EKVX NSCLC": {"tested_on": "EKVX NSCLC"}, "HOP-18 NSCLC": {"tested_on": "HOP-18 NSCLC"}, "UO-31 renal": {"tested_on": "UO-31 renal"}, "M19-MEL melanoma": {"tested_on": "M19-MEL melanoma"}, "HOP-62 NSCLC": {"tested_on": "HOP-62 NSCLC"}, "ACHN renal": {"tested_on": "ACHN renal"}, "NCI-H226 lung": {"tested_on": "NCI-H226 lung"}, "SW-620 colon": {"tested_on": "SW-620 colon"}, "KM12 colon": {"tested_on": "KM12 colon"}, "SK-MEL-5 melanoma": {"tested_on": "SK-MEL-5 melanoma"}, "UACC-257 melanoma": {"tested_on": "UACC-257 melanoma"}, "RXF 393 renal": {"tested_on": "RXF 393 renal"}, "XF 498 CNS": {"tested_on": "XF 498 CNS"}, "CCRF-CEM leukemia": {"tested_on": "CCRF-CEM leukemia"}, "LXFL 529 NSCLC": {"tested_on": "LXFL 529 NSCLC"}, "HCC-2998 colon": {"tested_on": "HCC-2998 colon"}, "OVCAR-4 ovarian": {"tested_on": "OVCAR-4 ovarian"}, "SR leukemia": {"tested_on": "SR leukemia"}, "NCI-H460 lung": {"tested_on": "NCI-H460 lung"}, "OVCAR-3 ovarian": {"tested_on": "OVCAR-3 ovarian"}, "SK-MEL-28 melanoma": {"tested_on": "SK-MEL-28 melanoma"}, "786-0 renal": {"tested_on": "786-0 renal"}, "MALME-3M melanoma": {"tested_on": "MALME-3M melanoma"}, "DMS 114 small cell lung": {"tested_on": "DMS 114 small cell lung"}, "CAKI-1 renal": {"tested_on": "CAKI-1 renal"}, "MOLT-4 leukemia": {"tested_on": "MOLT-4 leukemia"}, "LOX IMVI melanoma": {"tested_on": "LOX IMVI melanoma"}, "HCT-15 colon": {"tested_on": "HCT-15 colon"}, "OVCAR-8 ovarian": {"tested_on": "OVCAR-8 ovarian"}, "DLD-1 colon": {"tested_on": "DLD-1 colon"}, "HOP-92 NSCLC": {"tested_on": "HOP-92 NSCLC"}, "SN12C renal": {"tested_on": "SN12C renal"}, "A498 renal": {"tested_on": "A498 renal"}, "IGROV1 ovarian": {"tested_on": "IGROV1 ovarian"}, "K-562 leukemia": {"tested_on": "K-562 leukemia"}, "KM20L2 colon": {"tested_on": "KM20L2 colon"}, "SNB-19 CNS": {"tested_on": "SNB-19 CNS"}, "COLO 205 colon": {"tested_on": "COLO 205 colon"}, "HCT-116 colon": {"tested_on": "HCT-116 colon"}, "M14 melanoma": {"tested_on": "M14 melanoma"}, "SF-268 CNS": {"tested_on": "SF-268 CNS"}, "U251 CNS": {"tested_on": "U251 CNS"}, "A549 NSCLC": {"tested_on": "A549 NSCLC"}, "HL-60(TB) leukemia": {"tested_on": "HL-60(TB) leukemia"}, "OVCAR-5 ovarian": {"tested_on": "OVCAR-5 ovarian"}, "RPMI-8226 leukemia": {"tested_on": "RPMI-8226 leukemia"}, "HT29 colon": {"tested_on": "HT29 colon"}, "UACC-62 melanoma": {"tested_on": "UACC-62 melanoma"}, "SK-OV-3 ovarian": {"tested_on": "SK-OV-3 ovarian"}, "SK-MEL-2 melanoma": {"tested_on": "SK-MEL-2 melanoma"}, "SNB-78 CNS": {"tested_on": "SNB-78 CNS"}, "SF-295 CNS": {"tested_on": "SF-295 CNS"}, "SF-539 CNS": {"tested_on": "SF-539 CNS"}, "TK-10 renal": {"tested_on": "TK-10 renal"}},
  "note": "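Where inhibition never reached the appropriate level, the endpoint shown equals the highest concentration tested. Otherwise, values were interpolated linearly from a five-concentration, 48-hour dose response in 96-well plates. Definition used: TGI = concentration required for complete inhibition of growth.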",
  "data": [
    {"compound": "CC(C)/C=C1\\CCC(CN2CCCC2)C1=O", "note": "(stereo unspecified)", "values": [
      {"measurement": "TGI", "setting": "NCI-H23 lung", "result": 33.8, "unit": "µM"},
      {"measurement": "TGI", "setting": "NCI-H522 lung", "result": 3.71, "unit": "µM"},
      {"measurement": "TGI", "setting": "EKVX NSCLC", "result": 40, "unit": "µM"},
      {"measurement": "TGI", "setting": "HOP-18 NSCLC", "result": 17.3, "unit": "µM"},
      {"measurement": "TGI", "setting": "UO-31 renal", "result": 32.5, "unit": "µM"},
      {"measurement": "TGI", "setting": "M19-MEL melanoma", "result": "> 60.4", "unit": "µM"},
      {"measurement": "TGI", "setting": "HOP-62 NSCLC", "result": "> 100", "unit": "µM"},
      {"measurement": "TGI", "setting": "ACHN renal", "result": 32.2, "unit": "µM"},
      {"measurement": "TGI", "setting": "NCI-H226 lung", "result": 49.6, "unit": "µM"},
      {"measurement": "TGI", "setting": "SW-620 colon", "result": 7.94, "unit": "µM"},
      {"measurement": "TGI", "setting": "KM12 colon", "result": 23.1, "unit": "µM"},
      {"measurement": "TGI", "setting": "SK-MEL-5 melanoma", "result": 33.2, "unit": "µM"},
      {"measurement": "TGI", "setting": "UACC-257 melanoma", "result": 33.9, "unit": "µM"},
      {"measurement": "TGI", "setting": "RXF 393 renal", "result": 29.7, "unit": "µM"},
      {"measurement": "TGI", "setting": "XF 498 CNS", "result": 31.5, "unit": "µM"},
      {"measurement": "TGI", "setting": "CCRF-CEM leukemia", "result": 17.3, "unit": "µM"},
      {"measurement": "TGI", "setting": "LXFL 529 NSCLC", "result": 10.1, "unit": "µM"},
      {"measurement": "TGI", "setting": "HCC-2998 colon", "result": 34.2, "unit": "µM"},
      {"measurement": "TGI", "setting": "OVCAR-4 ovarian", "result": 32.5, "unit": "µM"},
      {"measurement": "TGI", "setting": "SR leukemia", "result": 8.09, "unit": "µM"},
      {"measurement": "TGI", "setting": "NCI-H460 lung", "result": "> 79.7", "unit": "µM"},
      {"measurement": "TGI", "setting": "OVCAR-3 ovarian", "result": 31.8, "unit": "µM"},
      {"measurement": "TGI", "setting": "SK-MEL-28 melanoma", "result": 32.9, "unit": "µM"},
      {"measurement": "TGI", "setting": "786-0 renal", "result": 4.8, "unit": "µM"},
      {"measurement": "TGI", "setting": "MALME-3M melanoma", "result": 17.1, "unit": "µM"},
      {"measurement": "TGI", "setting": "DMS 114 small cell lung", "result": 34.5, "unit": "µM"},
      {"measurement": "TGI", "setting": "CAKI-1 renal", "result": 10.2, "unit": "µM"},
      {"measurement": "TGI", "setting": "MOLT-4 leukemia", "result": 14.9, "unit": "µM"},
      {"measurement": "TGI", "setting": "LOX IMVI melanoma", "result": 42.3, "unit": "µM"},
      {"measurement": "TGI", "setting": "HCT-15 colon", "result": 18.3, "unit": "µM"},
      {"measurement": "TGI", "setting": "OVCAR-8 ovarian", "result": 16.5, "unit": "µM"},
      {"measurement": "TGI", "setting": "DLD-1 colon", "result": 10.4, "unit": "µM"},
      {"measurement": "TGI", "setting": "HOP-92 NSCLC", "result": 36.1, "unit": "µM"},
      {"measurement": "TGI", "setting": "SN12C renal", "result": 34.8, "unit": "µM"},
      {"measurement": "TGI", "setting": "A498 renal", "result": "> 59", "unit": "µM"},
      {"measurement": "TGI", "setting": "IGROV1 ovarian", "result": "> 62.5", "unit": "µM"},
      {"measurement": "TGI", "setting": "K-562 leukemia", "result": 11.9, "unit": "µM"},
      {"measurement": "TGI", "setting": "KM20L2 colon", "result": 36, "unit": "µM"},
      {"measurement": "TGI", "setting": "SNB-19 CNS", "result": "> 64.2", "unit": "µM"},
      {"measurement": "TGI", "setting": "COLO 205 colon", "result": 18.1, "unit": "µM"},
      {"measurement": "TGI", "setting": "HCT-116 colon", "result": 20.9, "unit": "µM"},
      {"measurement": "TGI", "setting": "M14 melanoma", "result": 24.2, "unit": "µM"},
      {"measurement": "TGI", "setting": "SF-268 CNS", "result": 43.6, "unit": "µM"},
      {"measurement": "TGI", "setting": "U251 CNS", "result": 21, "unit": "µM"},
      {"measurement": "TGI", "setting": "A549 NSCLC", "result": 20.1, "unit": "µM"},
      {"measurement": "TGI", "setting": "HL-60(TB) leukemia", "result": 14.4, "unit": "µM"},
      {"measurement": "TGI", "setting": "OVCAR-5 ovarian", "result": 35.2, "unit": "µM"},
      {"measurement": "TGI", "setting": "RPMI-8226 leukemia", "result": 3.5, "unit": "µM"},
      {"measurement": "TGI", "setting": "HT29 colon", "result": 25.6, "unit": "µM"},
      {"measurement": "TGI", "setting": "UACC-62 melanoma", "result": 47.4, "unit": "µM"},
      {"measurement": "TGI", "setting": "SK-OV-3 ovarian", "result": "> 100", "unit": "µM"},
      {"measurement": "TGI", "setting": "SK-MEL-2 melanoma", "result": 37.7, "unit": "µM"},
      {"measurement": "TGI", "setting": "SNB-78 CNS", "result": 51.2, "unit": "µM"},
      {"measurement": "TGI", "setting": "SF-295 CNS", "result": "> 94.5", "unit": "µM"},
      {"measurement": "TGI", "setting": "SF-539 CNS", "result": 35.6, "unit": "µM"},
      {"measurement": "TGI", "setting": "TK-10 renal", "result": 24.7, "unit": "µM"}
    ]}
  ]
}
